From patent publication US20230404980A1, “METHODS OF TREATING SPONDYLOARTHRITIS OR SYMPTOMS THEREOF” (UNIVERSITY HEALTH NETWORK, priority 2020, published 2023)

Key:
[1] = cited from earlier work
[2] = test system: curdlan-treated SKG mice; assay: Curdlan-treated SKG mouse model of SpA: clinical scores, histopathology, microCT; type: in vivo
Description: (§1) Methods: Curdlan (β-glucan) or MIF-plasmid (mini-circle) treated SKG mice (8-10 weeks) were used as SpA mouse models. The expression of MIF in serum or tissues was measured by ELISA, quantitative PCR (qPCR), western blotting, immunohistochemistry (IHC) and/or immunofluorescence (IF). MIF knockout (KO) SKG mice were generated as MIF deficiency mice. MIF inhibitor (MIF098) was used to block the function of MIF in SpA mouse models to assess the therapeutic or prophylactic effects in a curdlan-treated SpA mouse model. Populations of immunological cells were assessed by flow cytometry. Anti-Gr-1 monoclonal antibody (mAb) or isotype control mAb was used to block the function of neutrophils or monocytes. Clinical scores, histopathology and microCT imaging were used to assess the severity of inflammation in the various tissues of the mouse models.
#1. Animal model, treatments and clinical scoring: Female and male SKG mice (age 8-10 weeks) were injected with PBS, curdlan (3 mg/mouse, i.p.), MIF-plasmid (EEV, 5 μg/mouse, i.v., from systemic biosciences), or control-plasmid (5 μg/mouse, i.v., from systemic biosciences) to induce SpA phenotype and weekly observed the clinical manifestations of inflammation and NBFs over 8 weeks (n=10 mice/group). C57BL/6 and BALB/c mice (age 8-10 weeks) were also subjected to MIF- or control-plasmid injection to observe clinical symptoms. MIF- or control plasmid was administered by HDD tail vein injection as previously described (11). We also generated Mif−/− (KO) SKG mice by crossing SKG mice and BALB/c Mif KO mice (22).
(§2) After 1 or 4 weeks post-curdlan treatment, we injected MIF antagonist (MIF098; 40 mg/kg, twice/day, i.p.) (23) or control vehicle [PEG400 (Sigma, cat#91893) and HP-P-P-CD (Sigma, cat#C0926)] to assess the prophylactic and therapeutic effects of the MIF098 on the inflammation and NBFs in the SpA mouse model until 8 weeks post-curdlan treatment. Anti-mouse Gr-1 antibody (100 μg/mouse, Life Technologies) or isotype IgG monoclonal antibodies (100 μg/mouse, Life Technologies) were administered on day 3, 6, 9, 12 and 15 post-curdlan treatment.
(§3) Clinical scores for SpA-related manifestations were assessed based on severity scales (Table 1); arthritis, maximum 6 points; dermatitis, maximum 2 points; blepharitis, maximum 2 points). The scores were evaluated at least 2 independent scorers in a blinded fashion and final scores were the average of the observations. At the endpoint, ankle joints, spleen and lymph nodes (PLNs and MLNs) were dissected for FACS, one ankle was dissected prior to storage in RNA later for qPCR unless used for FACS, the other ankle was kept intact and fixed in 10% neutral buffered formalin for histopathological assessments. The upper tail spine, pelvis, eyes and ileum were dissected and fixed in 10% neutral buffered formalin for histopathology. For ankle digestion, skin was peeled off and toes (at distal phalanges) and tibia (˜0.5 cm above tibia) were cut off. After flushing bone marrow, the tissue was digested with RPMI culture media containing hyaluronidase and collagenase type VIII for 1 h at 37° C. in incubator. Following passing through 70 μm of cell strainer and RBC lysis treatment, cells were centrifuged and used for FACS analysis.
Ankle joints, tail spine, and pelvis were fixed in 10% neutral buffered formalin for at least 72 h, decalcified in 10% EDTA (BioShop) for 14-21 days and embedded in paraffin. Eyes and ileum were fixed in formalin for at least 72 h without decalcification. Serial sections (4 μm) were stained with hematoxylin and eosin (H&E; Fisher Scientific). To assess endochondral ossification, safranin O/ fast green staining was also applied to NBF in distal tibia as previously described (24, 25). For histological scores, multiple sections (three sections approximately 40-80 μm apart) per joint sample were evaluated by 2 independent scorers in a blinded fashion according to histological assessments as previously reported (11, 24). […]

[3] = test system: curdlan-treated SKG mice; assay: Flow cytometry of immune cell populations from curdlan-treated SKG mice; type: in vivo, mouse
Description: as §1, §2, §3
For all panels, single cell suspensions were first stained with a fixable live dead stain (L/D NIR, Invitrogen, cat#L10119) as directed by the manufacturers. Cells were blocked with FcX (BioLegend, cat#101320) or Monocyte Blocker (BioLegend, cat#426102) prior to staining with surface antibodies. For experiments in which transcription factors were stained, cells were fixed and permeabilized with True-Nuclear kit (BioLegend, cat#424401) as directed. For experiments in which cytokines were stained, cells were fixed with a PFA buffer and permeabilized with intracellular staining buffer (BioLegend, cat#420801 and cat#421002) as indicated. Brefeldin A (BioLegend, cat#420601) with or without PMA/ionomycin (BioLegend, cat#423302) were used for in vitro stimulations to detect intracellular cytokines. Data were acquired on LSR II or Canto II (BD) and analyzed with FlowJo (version 10.6, Becton Dickinson).

[4] = test system: human Tregs; assay: Th17 acquisition assay in human Tregs and cytokine measurement; type: cell-based; conditions: rhMIF 50 ng/ml, 12 days
Description: Human naïve CD4+ T cells and Tregs (CD4+CD25+CD127low) were isolated from PBMCs of healthy male controls without any history of back pain, arthritis, and joint injuries (age: 18-40, n=4 individuals in total) using the human naïve T cells isolation kit (STEM CELL, Cat #19555) and Treg isolation kit (STEM CELL, cat#18063), respectively. Isolated human Tregs (3×10^4 cells/well) were cultured in the complete IMDM culture media containing ImmunoCult™ Human CD3/CD28/CD2 T Cell Activator (25 μl/ml, STEMCELL, cat#10970), and rhIL-2 (100 IU/ml, BioLegend, cat#589102) alone or in combination with or without rhMIF (50 ng/ml, BioLegend, cat#599404), rhIL-1β (25 ng/ml, BioLegend, cat#579402) and rhIL-23 (100 ng/ml, BioLegend, cat#574102) for 12 days. Each culture media was replaced ever 2-3 days. The cells were used for further analysis.
Released cytokine in cell culture supernatant on day 12 was quantified using the LEGENDplex Human Th17 Cytokine Panel (BioLegend, cat#741032) according to the manufacturer's instructions.
For all panels, single cell suspensions were first stained with a fixable live dead stain (L/D NIR, Invitrogen, cat#L10119) as directed by the manufacturers. Cells were blocked with FcX (BioLegend, cat#101320) or Monocyte Blocker (BioLegend, cat#426102) prior to staining with surface antibodies. For experiments in which transcription factors were stained, cells were fixed and permeabilized with True-Nuclear kit (BioLegend, cat#424401) as directed. […] Data were acquired on LSR II or Canto II (BD) and analyzed with FlowJo (version 10.6, Becton Dickinson).
The concentration of MIF in SKG mice or culture supernatant media and the concentration of IL-17A in the human Tregs culture media were assessed by mouse MIF ELISA kit (LEGEND MAX™ Mouse MIF ELISA Kit, BioLegend, cat# 44107) and Human IL-17A ELISA kit (LEGEND MAX™ Human IL-17A ELISA Kit, BioLegend, cat# 433917) were used, respectively. Samples were analyzed according to the manufacture's instruction.

[5] = prophylactic: MIF098 40 mg/kg i.p. twice daily from 1 to 8 weeks post-curdlan, female SKG mice, vs CTL
[6] = SKG SpA mouse model, summary of Example 1
[7] = prophylactic MIF098, 8 weeks post-curdlan, vs CTL

## CC(C)C(=O)c1c(C(C)C)nn2ccccc12 [Ibudilast, 2-methyl-1-(2-propan-2-ylpyrazolo[1,5-a]pyridin-3-yl)propan-1-one]
[1]; clinical trials for asthma and multiple sclerosis
  toxicity in clinical trials: minimal toxicity
[1]; single 30-mg dose followed by 14 days of 30 mg b.i.d, healthy adults
  safety: generally safe

## C=C1Cc2ccc(C)cc2C1Cc1cccc(C)c1 (stereo not shown) [MIF098]
[2]; SKG SpA mouse model, MIF blockade
  SpA clinical manifestations (colitis, psoriasis, arthritis in axial and peripheral joints): dramatically suppressed or attenuated
[2]; prophylactic, 8 weeks post-curdlan, vs CTL
  inflammation in the ankle, tail spine, sacroiliac joints, and ileum (histology and histopathology scoring): Lower severity of inflammation
[2]; prophylactic, distal tibia, 8 weeks post-curdlan, vs CTL
  new bone formation (NBF), microCT imaging and histological assessments: did not display an evident NBF
[2]; [5]
  severity of blepharitis (clinical score): reduced severity
  severity of psoriasis-like dermatitis (clinical score): reduced severity
[2]; prophylactic: MIF098 40 mg/kg i.p. twice daily from 1 to 8 weeks post-curdlan, female SKG mice, vs vehicle control (CTL)
  severity of arthritis (clinical score): reduced severity
[2]; therapeutic: MIF098 from 4 weeks to 8 weeks post-curdlan, female SKG mice, vs CTL
  severity of psoriasis-like dermatitis: reduced the severity
[2]; therapeutic: MIF098 from 4 weeks to 8 weeks post-curdlan, vs CTL
  new bone formation (NBF), histological assessments: reduced
[2]; therapeutic: MIF098 injected from 4 weeks to 8 weeks post-curdlan, female SKG mice, vs CTL
  severity of arthritis: reduced the severity
[3]; [6]
  populations of Th17: decreased populations of Th17
  regulatory T (Treg) cells: increased
[3]; curdlan-treated SKG mice, 8 weeks post-curdlan, vs CTL
  RORγt+Foxp3+CD4+ T cells: decreased
[3]; [7]
  frequency of ILC3s in PLNs: significantly deceased
  frequency of Th17 lineage cells in PLNs: significantly deceased
  percentage of Th17 lineage cells in spleen: no significant difference
  percentage of Tregs (PLNs): significant increase
  percentage of Tregs in spleen: significant increase
  percentage of inflammatory macrophages in the ankle joints: no difference between groups
  percentage of patrolling macrophages in the ankle joints: increase
[3]; prophylactic MIF098, curdlan-treated SKG mice, vs CTL
  ILC2s: remarkably increased

B1: rhMIF: recombinant human MIF (BioLegend) used to stimulate human Tregs (protein, UniProt P14174 2-115, looked up)
Macrophage migration …: PMFIVNTNVPRASVPDGFLSELTQQLAQATGKPPQYIAVHVVPDQLMAFGGSSEPCALCSLHSIGKIGGAQNRSYSKLLCGLLAERLRISPDRVYINYYDMNAANVGWNNSTFA
[4]
  release of IL-6: without increased release
[4]; in the presence of IL1β and IL23, vs without rhMIF
  frequency of RORγt+CD4+ T cells from Tregs: increased
[4]; vs control-treated Tregs
  secretion of IL-17A into the culture media: significantly higher
